Laboratory results as given in BindingDB's records for doi:10.1021/jm9508696 (Sandoz Research Institute, 1996).

Target: T1, Dimer of Gag-Pol polyprotein [489-587] (Human immunodeficiency virus 1, UniProt P12497)
T1 construct: 489-587
Experiment: Protease Inhibition Assay
Settings: not given
Method: Enzymatic activity was measured by following cleavage of the substrate H-Lys-Ala-Arg-Val-Leu-pNph-Glu-Ala-Nle-NH2. Products of the cleavage reaction were quantified by HPLC detection

SMILES	Ki [nM]
COc1ccc(CN[C@@H](C(=O)N[C@H]2c3ccccc3C[C@H]2O)[C@H](O)[C@H](Cc2ccccc2)NC(=O)[C@@H](NC(=O)CCc2ccccc2O)C(C)(C)C)cc1 [(2R,3R,4S)-3-hydroxy-N-[(1S,2R)-2-hydroxy-2,3-dihydro-1H-inden-1-yl]-4-[(2S)-2-[3-(2-hydroxyphenyl)propanamido]-3,3-dimethylbutanamido]-2-{[(4-methoxyphenyl)methyl]amino}-5-phenylpentanamide]	13
COc1ccc(CN[C@@H](C(=O)N[C@H]2c3ccccc3C[C@H]2O)[C@H](O)[C@H](Cc2ccccc2)NC(=O)[C@@H](NC(=O)CCc2ccc(OC)c(O)c2)C(C)(C)C)cc1 [(2R,3R,4S)-3-hydroxy-N-[(1S,2R)-2-hydroxy-2,3-dihydro-1H-inden-1-yl]-4-[(2S)-2-[3-(3-hydroxy-4-methoxyphenyl)propanamido]-3,3-dimethylbutanamido]-2-{[(4-methoxyphenyl)methyl]amino}-5-phenylpentanamide]	7.7
COc1ccc(CN[C@@H](C(=O)N[C@H]2c3ccccc3C[C@H]2O)[C@H](O)[C@H](Cc2ccccc2)NC(=O)[C@@H](NC(=O)/C=C/c2ccc(OC)cc2O)C(C)(C)C)cc1 [(2R,3R,4S)-3-hydroxy-N-[(1S,2R)-2-hydroxy-2,3-dihydro-1H-inden-1-yl]-4-[(2S)-2-[(2E)-3-(2-hydroxy-4-methoxyphenyl)prop-2-enamido]-3,3-dimethylbutanamido]-2-{[(4-methoxyphenyl)methyl]amino}-5-phenylpentanamide]	18
COc1ccc(CN[C@@H](C(=O)N[C@H]2c3ccccc3C[C@H]2O)[C@H](O)[C@H](Cc2ccccc2)NC(=O)[C@@H](NC(=O)/C=C/c2ccc(OC)c(O)c2)C(C)(C)C)cc1 [(2R,3R,4S)-3-hydroxy-N-[(1S,2R)-2-hydroxy-2,3-dihydro-1H-inden-1-yl]-4-[(2S)-2-[(2E)-3-(3-hydroxy-4-methoxyphenyl)prop-2-enamido]-3,3-dimethylbutanamido]-2-{[(4-methoxyphenyl)methyl]amino}-5-phenylpentanamide]	5.8
COc1ccc(CN[C@@H](C(=O)N[C@H]2c3ccccc3C[C@H]2O)[C@H](O)[C@H](Cc2ccccc2)NC(=O)[C@@H](NC(=O)CSc2nncn2C)C(C)(C)C)cc1 [(2R,3R,4S)-4-[(2S)-3,3-dimethyl-2-{2-[(4-methyl-4H-1,2,4-triazol-3-yl)sulfanyl]acetamido}butanamido]-3-hydroxy-N-[(1S,2R)-2-hydroxy-2,3-dihydro-1H-inden-1-yl]-2-{[(4-methoxyphenyl)methyl]amino}-5-phenylpentanamide]	5.8
COc1ccc(CN[C@@H](C(=O)N[C@H]2c3ccccc3C[C@H]2O)[C@H](O)[C@H](Cc2ccccc2)NC(=O)[C@@H](NC(=O)CSc2nnc(C)s2)C(C)(C)C)cc1 [(2R,3R,4S)-4-[(2S)-3,3-dimethyl-2-{2-[(5-methyl-1,3,4-thiadiazol-2-yl)sulfanyl]acetamido}butanamido]-3-hydroxy-N-[(1S,2R)-2-hydroxy-2,3-dihydro-1H-inden-1-yl]-2-{[(4-methoxyphenyl)methyl]amino}-5-phenylpentanamide]	8
CC(C)(C)[C@H](NC(=O)OCc1ccccc1)C(=O)N[C@@H](Cc1ccccc1)[C@@H](O)[C@@H](NCc1ccc(CNC(=O)CCc2nc3ccccc3[nH]2)cc1)C(=O)N[C@H]1c2ccccc2C[C@H]1O [benzyl N-[(1S)-1-{[(2S,3R,4R)-4-{[(4-{[3-(1H-1,3-benzodiazol-2-yl)propanamido]methyl}phenyl)methyl]amino}-3-hydroxy-4-{[(1S,2R)-2-hydroxy-2,3-dihydro-1H-inden-1-yl]carbamoyl}-1-phenylbutan-2-yl]carbamoyl}-2,2-dimethylpropyl]carbamate]	4.1
COc1ccc(CN[C@@H](C(=O)N[C@H]2c3ccccc3C[C@H]2O)[C@H](O)[C@H](Cc2ccccc2)NC(=O)[C@@H](NC(=O)OC(C)(C)C)C(C)(C)C)cc1 [tert-butyl N-[(1S)-1-{[(2S,3R,4R)-3-hydroxy-4-{[(1S,2R)-2-hydroxy-2,3-dihydro-1H-inden-1-yl]carbamoyl}-4-{[(4-methoxyphenyl)methyl]amino}-1-phenylbutan-2-yl]carbamoyl}-2,2-dimethylpropyl]carbamate]	210

Same assay, conditions: pH 6.25; 37 °C

SMILES	Ki [nM]
COc1ccc(CN[C@@H](C(=O)N[C@H]2c3ccccc3C[C@H]2O)[C@H](O)[C@H](Cc2ccccc2)NC(=O)C(CC(=O)O)NC(=O)OCc2ccccc2)cc1 (stereo partly drawn) [3-{[(benzyloxy)carbonyl]amino}-3-{[(2S,3R,4R)-3-hydroxy-4-{[(1S,2R)-2-hydroxy-2,3-dihydro-1H-inden-1-yl]carbamoyl}-4-{[(4-methoxyphenyl)methyl]amino}-1-phenylbutan-2-yl]carbamoyl}propanoic acid]	22
COc1ccc(CN[C@@H](C(=O)N[C@H]2c3ccccc3C[C@H]2O)[C@H](O)[C@H](Cc2ccccc2)NC(=O)OC(C)(C)C)cc1 [(2R,3S,4S,1 S,2 R)-4-[[(1,1-Dimethylethoxy0carbonyl]amino]-3-hydroxy-2-[(4-methoxybenzyl)amino]-5-phenylpentan(2-hydroxy-1 indanyl)amide]	65
CCC(C)C(NC(=O)OCc1ccccc1)C(=O)N[C@@H](Cc1ccccc1)[C@@H](O)[C@@H](NCc1ccc(OC)cc1)C(=O)N[C@H]1c2ccccc2C[C@H]1O (stereo partly drawn) [benzyl N-(1-{[(2S,3R,4R)-3-hydroxy-4-{[(1S,2R)-2-hydroxy-2,3-dihydro-1H-inden-1-yl]carbamoyl}-4-{[(4-methoxyphenyl)methyl]amino}-1-phenylbutan-2-yl]carbamoyl}-2-methylbutyl)carbamate]	8.2
COc1ccc(CN[C@@H](C(=O)N[C@H]2c3ccccc3C[C@H]2O)[C@H](O)[C@H](Cc2ccccc2)NC(=O)C(NC(=O)OCc2ccccc2)C(C)C)cc1 (stereo partly drawn) [benzyl N-(1-{[(2S,3R,4R)-3-hydroxy-4-{[(1S,2R)-2-hydroxy-2,3-dihydro-1H-inden-1-yl]carbamoyl}-4-{[(4-methoxyphenyl)methyl]amino}-1-phenylbutan-2-yl]carbamoyl}-2-methylpropyl)carbamate]	8.1
COc1ccc(CN[C@@H](C(=O)N[C@H]2c3ccccc3C[C@H]2O)[C@H](O)[C@H](Cc2ccccc2)NC(=O)C(CC(N)=O)NC(=O)OCc2ccccc2)cc1 (stereo partly drawn) [benzyl N-(2-carbamoyl-1-{[(2S,3R,4R)-3-hydroxy-4-{[(1S,2R)-2-hydroxy-2,3-dihydro-1H-inden-1-yl]carbamoyl}-4-{[(4-methoxyphenyl)methyl]amino}-1-phenylbutan-2-yl]carbamoyl}ethyl)carbamate]	15
CC(C)(C)OC(=O)N[C@@H](Cc1ccccc1)[C@@H](O)[C@@H](NCc1ccc(CNC(=O)Nc2ccccc2)cc1)C(=O)N[C@H]1c2ccccc2C[C@H]1O [tert-butyl N-[(2S,3R,4R)-3-hydroxy-4-{[(1S,2R)-2-hydroxy-2,3-dihydro-1H-inden-1-yl]carbamoyl}-1-phenyl-4-{[(4-{[(phenylcarbamoyl)amino]methyl}phenyl)methyl]amino}butan-2-yl]carbamate]	33
CC(C)(C)OC(=O)N[C@@H](Cc1ccccc1)[C@@H](O)[C@@H](NCc1ccc(OCCO)cc1)C(=O)N[C@H]1c2ccccc2C[C@H]1O [tert-butyl N-[(2S,3R,4R)-3-hydroxy-4-{[(1S,2R)-2-hydroxy-2,3-dihydro-1H-inden-1-yl]carbamoyl}-4-({[4-(2-hydroxyethoxy)phenyl]methyl}amino)-1-phenylbutan-2-yl]carbamate]	80
CC(C)(C)OC(=O)N[C@@H](Cc1ccccc1)[C@@H](O)[C@@H](NCc1ccc(OCCN2CCOCC2)cc1)C(=O)N[C@H]1c2ccccc2C[C@H]1O [tert-butyl N-[(2S,3R,4R)-3-hydroxy-4-{[(1S,2R)-2-hydroxy-2,3-dihydro-1H-inden-1-yl]carbamoyl}-4-[({4-[2-(morpholin-4-yl)ethoxy]phenyl}methyl)amino]-1-phenylbutan-2-yl]carbamate]	130
CC(C)(C)OC(=O)N[C@@H](Cc1ccccc1)[C@@H](O)[C@@H](NCc1ccccc1)C(=O)NCc1ccccc1 [tert-butyl N-[(2S,3R,4R)-4-(benzylamino)-4-(benzylcarbamoyl)-3-hydroxy-1-phenylbutan-2-yl]carbamate]	2500
CC(C)(C)OC(=O)N[C@@H](Cc1ccccc1)[C@@H](O)[C@@H](NCc1ccc(OCCO)cc1)C(=O)NCc1ccccc1 [tert-butyl N-[(2S,3R,4R)-4-(benzylcarbamoyl)-3-hydroxy-4-({[4-(2-hydroxyethoxy)phenyl]methyl}amino)-1-phenylbutan-2-yl]carbamate]	1200
COc1ccc(CN[C@@H](C(=O)N[C@H](C(=O)NCc2nc3ccccc3[nH]2)C(C)C)[C@H](O)[C@H](Cc2ccccc2)NC(=O)OC(C)(C)C)cc1 [tert-butyl N-[(2S,3R,4R)-4-{[(1S)-1-[(1H-1,3-benzodiazol-2-ylmethyl)carbamoyl]-2-methylpropyl]carbamoyl}-3-hydroxy-4-{[(4-methoxyphenyl)methyl]amino}-1-phenylbutan-2-yl]carbamate]	7.7
CCOc1ccc(CN[C@@H](C(=O)N[C@H]2c3ccccc3C[C@H]2O)[C@H](O)[C@H](Cc2ccccc2)NC(=O)OC(C)(C)C)cc1 [tert-butyl N-[(2S,3R,4R)-4-{[(4-ethoxyphenyl)methyl]amino}-3-hydroxy-4-{[(1S,2R)-2-hydroxy-2,3-dihydro-1H-inden-1-yl]carbamoyl}-1-phenylbutan-2-yl]carbamate]	92
CC(C)(C)OC(=O)N[C@@H](Cc1ccccc1)[C@@H](O)[C@@H](NCc1ccc(CNC(=O)CCc2nc3ccccc3[nH]2)cc1)C(=O)NCc1ccccc1 [tert-butyl N-[(2S,3R,4R)-4-{[(4-{[3-(1H-1,3-benzodiazol-2-yl)propanamido]methyl}phenyl)methyl]amino}-4-(benzylcarbamoyl)-3-hydroxy-1-phenylbutan-2-yl]carbamate]	680
